Measured values from patent publication US6399325B1, “DNA encoding a galanin receptor” (priority 1994, dated 2002).

Tested on: mock transformed CHO cells
Assay: cAMP assay in mock transformed CHO cells
Type: cell-based
Conditions: CHO transformants with the plasmid vector without cDNA insert; forskolin 10 μM, porcine galanin 0.1 μM; 37° C. for 30 min
Protocol: (§1) CHO-MGR20 or mock transformed CHO cells were incubated with forskolin (10 μM) and porcine galanin (0.1 μM) at 37° C. for 30 min. The reaction was terminated by extracting the cells with ice-cold ethanol. The amounts of intracellular cAMP were quantitated by EIA. Values indicated are mean±S.E.M. in triplicate assays.
The CHO cells were seeded at 2.0×10^5 cells/well in 24-well tissue culture plates and cultured for two days. The cells were washed two times with HBSS containing 0.1% BSA and 1 mM IBMX, and then the same buffer with experimental agents were added to the wells. After incubation at 37° C. for 30 min, the media were discarded and intracellular cAMP was extracted with ice-cold ethanol. The aliquots of extracts were evaporated and the amounts of cAMP were quantitated by a cAMP EIA system (Amersham) as described by the manufacturer.
as §1, with “Galanin receptor-mediated inhibition of forskolin-stimulated cAMP production was observed. CHO-MGR20” for “CHO-MGR20”

Substance: Porcine Galanin
- forskolin-stimulated cAMP accumulation: not inhibited
